Measurements published in patent US6849612B2, “Oligonucleotide modulation of cell adhesion” (ISIS Pharmaceuticals, Inc., priority 1993, dated 2005).
Strand notation (5' to 3'): a small letter for the sugar, then the base; units joined by * are phosphorothioate-linked, units joined directly phosphodiester-linked; [ ] holds rarer units or linkages, { } end groups; capitals alone tell only the bases. d = 2'-deoxy (DNA)

Legend:
[1] = system: ICAM-1; experiment: ELISA screening for ICAM-1 expression in interleukin-1β-stimulated cells (HUVEC and A549); assay type: cell-based, human; conditions: interleukin-1β-stimulated cells, two cell lines (HUVEC, A549)
[2] = system: ICAM-1; experiment: ELISA of ICAM-1 expression in A431 cells; assay type: cell-based; conditions: human epidermal carcinoma A431 cells
Protocol: (§1) Expression of ICAM-1, VCAM-1 and ELAM-1 on the surface of cells can be quantitated using specific monoclonal antibodies in an ELISA. Cells are grown to confluence in 96 well microtiter plates. The cells are stimulated with either interleukin-1 or tumor necrosis factor for 4 to 8 hours to quantitate ELAM-1 and 8 to 24 hours to quantitate ICAM-1 and VCAM-1. Following the appropriate incubation time with the cytokine, the cells are gently washed three times with a buffered isotonic solution containing calcium and magnesium such as Dulbecco's phosphate buffered saline (D-PBS). The cells are then directly fixed on the microtiter plate with 1 to 2% paraformaldehyde diluted in D-PBS for 20 minutes at 25° C. The cells are washed again with D-PBS three times. Nonspecific binding sites on the microtiter plate are blocked with 2% bovine serum albumin in D-PBS for 1 hour at 37° C. Cells are incubated with the appropriate monoclonal antibody diluted in blocking solution for 1 hour at 37° C. Unbound antibody is removed by washing the cells three times with D-PBS. Antibody bound to the cells is detected by incubation with a 1:1000 dilution of biotinylated goat anti-mouse IgG (Bethesda Research Laboratories, Gaithersburg, Md.) in blocking solution for 1 hour at 37° C. Cells are washed three times with D-PBS and then incubated with a 1:1000 dilution of streptavidin conjugated to β-galactosidase (Bethesda Research Laboratories) for 1 hour at 37° C. The cells are washed three times with D-PBS for 5 minutes each. The amount of β-galactosidase bound to the specific monoclonal antibody is determined by developing the plate in a solution of 3.3 mM chlorophenolred-β-D-galactopyranoside, 50 mM sodium phosphate, 1.5 mM MgCl2; pH=7.2 for 2 to 15 minutes at 37° C. The concentration of the product is determined by measuring the absorbance at 575 nm in an ELISA microtiter plate reader. […]
(§2) Cells grown in 96-well plates were washed three times with Opti-MEM (GIBCO, Grand Island, N.Y.) prewarmed to 37° C. […] ICAM-1 expression was determined as described in Example 1. […]

[3] = system: ICAM-1; experiment: ELISA of ICAM-1 expression in primary human keratinocytes; assay type: cell-based
Protocol: as §1, §2

[4] = system: ICAM-1; experiment: ELISA of ICAM-1 cell surface expression in C8161 human melanoma cells; assay type: cell-based; conditions: 15 μg/ml Lipofectin, 5 ng/ml TNF-α 16 hours
Protocol: (§3) ICAM-1 expression on the cell surface was measured by ELISA. Cells were treated with increasing concentrations of antisense oligonucleotides in the presence of 15 μg/ml Lipofectin for 4 hours at 37° C. ICAM-1 expression was induced by incubation with 5 ng/ml TNF-α for 16 hours. Cells were washed 3× in DPBS and fixed for 20 minutes in 2% formaldehyde. Cells were washed in DPBS, blocked with 2% BSA for 1 hour at 37° C. and incubated with ICAM-1 monoclonal antibody 84H10 (AMAC, Inc., Westbrook, Me.). Detection of bound antibody was determined by incubation with a biotinylated goat anti-mouse IgG followed by incubation with […] streptavidin and developed with chlorophenol red-β-D-galactopyranoside and quantified by absorbance at 575 nm. ICAM-1 mRNA levels were measured by Northern blot analysis.
The data were expressed as percentage of control activity, calculated as follows: (ICAM-1 expression for oligonucleotide-treated, cytokine-induced cells)−(basal ICAM-1 expression)/(ICAM-1 cytokine-induced expression)−(basal ICAM-1 expression)×100.

[5] = system: ICAM-1 mRNA; experiment: Northern blot of ICAM-1 mRNA in C8161 cells; assay type: cell-based, human; conditions: Northern blot analysis
Protocol: as §3

[6] = system: C8161 human melanoma cells; experiment: Experimental metastasis assay of oligonucleotide-treated C8161 cells in athymic nude mice; assay type: in vivo
Protocol: To evaluate the role of ICAM-1 in metastasis, experimental metastasis assays were performed by injecting 1×10^5 C8161 cells into the lateral tail vein of athymic nude mice. […] Assoc. Cancer Res. 1990, 13, 353].
After 4 weeks, mice were sacrificed, organs were fixed in Bouin's fixative and metastatic lesions on lungs were scored with the aid of a dissecting microscope. Four-week-old female athymic nude mice (Harlan Sprague Dawley) were used. Animals were maintained under the guidelines of the NIH. Groups of 4-8 mice each were tested in experimental metastasis assays.
Treatment of C8161 cells with antisense oligonucleotides ISIS 1570 and ISIS 2302, complementary to ICAM-1, was performed in the presence of the cationic lipid, Lipofectin (Gibco/BRL, Gaithersburg, Md.). Antisense oligonucleotides were synthesized as described in Example 3. Cells were seeded in 60 mm tissue culture dishes at 10^6 cells/ml and incubated at 37 °C for 3 days, washed with OPTI-MEM (Gibco/BRL) 3 times and 100 μl of OPTI-MEM medium was added to each well. 0.5 μM oligonucleotide and 15 μg/ml lipofectin were mixed at room temperature for 15 minutes. 25 μl of the oligonucleotide-lipofectin mixture was added to the appropriate dishes and incubated at 37° C. for 4 hours. The oligonucleotide-lipofectin mixture was removed and replaced with DME-F12 medium containing 10% fetal calf serum. After 4 hours, 500 U/ml TNF-α was added to the appropriate wells and incubated for 18 hours at which time cells were removed from the plates, counted and injected into athymic nude mice.

[7] = system: human corneal donor buttons; experiment: Human corneal donor buttons stored in OPTISOL with ISIS 2302
Protocol: Eleven human corneal donor buttons were stored in TM OPTISOL™ for 8 days and used as the control group. Additional corneal buttons were used for the experimental group and were stored in OPTISOL™ with either 200 μg/ml ISIS 2302 (n=10) or 400 μg/ml ISIS 2302 (n=8). Endothelial cell density was evaluated by specular microscopy. After 8 days, all corneas were prepared for SEM and photographs were taken of endothelial and epithelial surfaces.

[8] = system: leukocyte migration; experiment: Leukocyte migration into carrageenan-soaked sponges in mice; assay type: in vivo, mouse; conditions: 3 mg/kg oral, after surgery, 6-8 hours later and at 21 hours; vs vehicle control

Row | Compound | inhibition of ICAM-1 expression, relative activity in words [1] | inhibition of ICAM-1 expression [2] | inhibition of ICAM-1 expression [3] | cell surface expression of ICAM-1 [4] | ICAM-1 mRNA levels [5] | No. Lung Metastases per Mouse (Mean ± S.E.M.) ([6]; C8161 cells treated with 0.5 μM oligonucleotide + Lipofectin + TNF-α, Lipofectin + TNF-α 81 ± 8) | No. Lung Metastases per Mouse (Mean ± S.E.M.) ([6]; C8161 cells treated with 0.5 μM oligonucleotide + Lipofectin, no TNF-α, Lipofectin only 64 ± 13) | toxicity to stored human corneas [7] | endothelial cell density by specular microscopy ([7]; 200 or 400 μg/ml in OPTISOL, after 2 or 8 days of storage, vs control) | reduction in mean leukocyte count [8]
1 | ISIS 2302: P=S, human ICAM-1 3′-Untranslated (2114-2133), SEQ ID NO 22 (antisense dG*dC*dC*dC*dA*dA*dG*dC*dT*dG*dG*dC*dA*dT*dC*dC*dG*dT*dC*dA) | most active of the series, with activity comparable to that of ISIS 1939 | inhibit ICAM-1 expression | inhibit ICAM-1 expression | decreased cell surface expression of ICAM-1 | markedly reduced | 31 ± 8 | 23 ± 6 | not markedly toxic | no difference in endothelial cell density | 
2 | COc1ccc2c(c1)c(CC(=O)O)c(C)n2C(=O)c1ccc(Cl)cc1 [indomethacin] |  |  |  |  |  |  |  |  |  | 79%
